The target of data set [1] is T1, human 5-HT2A receptor (Homo sapiens (Human), UniProt P28223). Kind of data set: 5HT2A competitive binding assay (Eurofins Cerep). An excerpt: The compound is approximately equipotent to psilocybin based on data from the http:/PDSP.unc.edu/databases/pdsp.php.
Data set [2] concerns the target T2, 5HT2B receptor (Homo sapiens, UniProt P41595). Kind of data set: 5HT2B competitive binding assay.
Data set [3] deals with T2, 5HT2B receptor. Kind of data set: 5HT2B functional antagonist assay. The data set is classed as cell-based. As for the experimental part:
Quantification of myo-Inositol-1-phosphate was performed using HTRF.

For data set [4], the target named is T3, 5HT2C receptor (Homo sapiens, UniProt P28335). To be noted: phosphoinositol hydrolysis; read-out: Agonist potency at human 5-HT2C receptor; cited from earlier work.
T3 sequence (P28335 33-458 limits assumed): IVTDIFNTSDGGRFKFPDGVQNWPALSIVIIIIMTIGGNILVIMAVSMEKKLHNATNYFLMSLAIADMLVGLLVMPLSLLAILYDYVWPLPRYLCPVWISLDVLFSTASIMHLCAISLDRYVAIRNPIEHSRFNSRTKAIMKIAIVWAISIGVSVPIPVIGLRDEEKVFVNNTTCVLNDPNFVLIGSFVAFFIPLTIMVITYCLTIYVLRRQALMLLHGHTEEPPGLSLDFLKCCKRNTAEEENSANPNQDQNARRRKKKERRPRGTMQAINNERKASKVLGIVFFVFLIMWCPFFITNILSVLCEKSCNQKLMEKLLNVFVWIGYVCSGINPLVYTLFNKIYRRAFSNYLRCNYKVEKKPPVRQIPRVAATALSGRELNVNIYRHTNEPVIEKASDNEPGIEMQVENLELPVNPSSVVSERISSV
Data set [5] concerns the target T1, human 5-HT2A receptor. Description: 5HT2A functional assay (agonism). The data set is classed as cell-based.
The target in data set [6] is Adrenergic Alpha 2A (Homo sapiens (Human), UniProt P08913). Kind of data set: Functional GCPR assay, inhibition, Adrenergic Alpha 2A. To be noted: read-out: IC50 (A2A) inhibition in functional GCPR assay. The data set is classed as cell-based.
Sequence of Adrenergic Alpha 2A (P08913 whole entry): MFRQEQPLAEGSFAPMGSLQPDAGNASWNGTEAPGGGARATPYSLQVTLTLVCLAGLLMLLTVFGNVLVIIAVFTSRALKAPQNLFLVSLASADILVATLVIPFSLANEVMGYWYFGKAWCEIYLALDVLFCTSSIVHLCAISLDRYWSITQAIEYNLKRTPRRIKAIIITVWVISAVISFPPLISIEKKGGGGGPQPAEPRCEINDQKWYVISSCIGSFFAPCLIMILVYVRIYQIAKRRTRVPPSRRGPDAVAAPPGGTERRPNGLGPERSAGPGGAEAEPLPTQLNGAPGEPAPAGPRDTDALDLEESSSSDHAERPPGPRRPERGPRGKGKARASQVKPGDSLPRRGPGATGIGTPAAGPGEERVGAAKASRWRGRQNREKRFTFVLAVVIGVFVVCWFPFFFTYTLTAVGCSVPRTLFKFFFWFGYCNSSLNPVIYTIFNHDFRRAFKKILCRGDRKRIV
Data set [7] relates to 5HT2C receptor. To be noted: binding Ki ratio.
Data set [8] in a line: Pharmacokinetics after i.v. administration in rats. The data set is classed as in vivo. To be noted: plasma, iv; rat, i.v. 1.0 mg/kg. On the procedure:
(§1) The compound of Example 1 was dispersed in water containing phosphate buffered saline at a rate of 1 mg/ml and then acidified to pH 4 to create a solution. The solution was administered to each of 3 rats (ca. 300 g each) at a rate of 1.0 mg/kg (ca. dose 0.33 ml, […]) via a catheter placed in the jugular vein. Animals were observed over a period of 12 h with counting the cumulative number head-twitch actions over each 10 min up to 2 hours and then for 10 min each at 3, 3.5 and 4 hours. Blood samples (0.25 ml) were collected via the catheter using 1 ml syringes into 0.8 ml K2EDTA tubes at 0.0833, 0.25, 0.5, 0.75, 1, 2, 4, 6 hours after the dose and placed on wet ice until processing. Psychological saline (0.25 ml) was reinjected after each blood draw via the catheter to the animal to flush the catheter and replenish blood volumes. The blood samples collected were centrifuged (3200 g, 5 min, 4 C) within 5 min of collection and the plasma recovered and placed in a cryovial and frozen in liquid nitrogen and stored at −80 C thereafter until analysis. A bioanalytical method was developed to quantify the compound in plasma using a Sciex 6500 Q-trap MSMS equipped with a standard LC system and after calibration with the compound of the example.

In data set [9] the target is human recombinant 5-HT1A (Homo sapiens (Human), UniProt P08908). Description: 5HT1A competitive binding assay (Eurofins Cerep). The following applies: for Ki: [3H]8-OHDPAT 0.5 nM, HEK-293, Cheng Prusoff, read-out: 5HT1A binding constant Ki.
For data set [10], the target named is Adrenergic Alpha 1A (Homo sapiens (Human), UniProt P35348). Description: Functional GCPR assay, inhibition, Adrenergic Alpha 1A. The data set is classed as cell-based. To be noted: read-out: IC50 (A1A) inhibition in functional GCPR assay.
Sequence of Adrenergic Alpha 1A (P35348 whole entry): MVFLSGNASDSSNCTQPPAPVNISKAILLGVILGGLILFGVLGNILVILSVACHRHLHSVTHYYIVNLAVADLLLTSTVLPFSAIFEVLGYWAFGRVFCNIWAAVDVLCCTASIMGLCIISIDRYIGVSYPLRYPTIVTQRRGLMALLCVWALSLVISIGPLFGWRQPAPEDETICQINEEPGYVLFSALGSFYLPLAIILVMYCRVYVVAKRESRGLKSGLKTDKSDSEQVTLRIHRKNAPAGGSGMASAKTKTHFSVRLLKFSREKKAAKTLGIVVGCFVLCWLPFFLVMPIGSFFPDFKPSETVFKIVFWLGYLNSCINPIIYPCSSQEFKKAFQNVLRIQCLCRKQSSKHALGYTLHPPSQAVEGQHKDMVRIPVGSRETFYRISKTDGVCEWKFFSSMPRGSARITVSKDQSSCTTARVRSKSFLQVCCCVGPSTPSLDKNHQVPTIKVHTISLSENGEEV
Data set [11] deals with T3, 5HT2C receptor. Description: biochemical.
Data set [12] deals with T2, 5HT2B receptor. Kind of data set: 5HT2B (IP1) functional agonist assay. The data set is classed as cell-based.
Data set [13] concerns rats. Kind of data set: Head-twitch counting during rat i.v. PK experiment. The data set is classed as in vivo. To be noted: i.v. 1.0 mg/kg, duration of PK experiment. As for the experimental part:
as §1

The mark [14] stands for this setting: 2A Binding, Table 1, all units nM.
The mark [15] stands for this setting: Table 1, all units nM, read-out: 2A Binding.
[16] abbreviates: Table 1, all units nM, read-out: 2B Binding.
[17] abbreviates: Table 1, all units nM, read-out: 2B IC50 Functional Antagonist.
Setting [18] is: 125I-DOI 0.2 nM, CHO cells, Cheng Prusoff, read-out: 5HT2B binding constant Ki.
Where [19] appears, read: Table 1, all units nM, read-out: 2B EC50 Functional Agonist.

As usually defined, the IC50 is the concentration at which inhibition is half-maximal. Broadly, the half-life is the time needed for the level to fall by half in the phase considered. A lower half-life goes with rapid decline.

Like-named read-outs stand apart in the source and are kept apart here.

T2 sequence (P41595 whole entry): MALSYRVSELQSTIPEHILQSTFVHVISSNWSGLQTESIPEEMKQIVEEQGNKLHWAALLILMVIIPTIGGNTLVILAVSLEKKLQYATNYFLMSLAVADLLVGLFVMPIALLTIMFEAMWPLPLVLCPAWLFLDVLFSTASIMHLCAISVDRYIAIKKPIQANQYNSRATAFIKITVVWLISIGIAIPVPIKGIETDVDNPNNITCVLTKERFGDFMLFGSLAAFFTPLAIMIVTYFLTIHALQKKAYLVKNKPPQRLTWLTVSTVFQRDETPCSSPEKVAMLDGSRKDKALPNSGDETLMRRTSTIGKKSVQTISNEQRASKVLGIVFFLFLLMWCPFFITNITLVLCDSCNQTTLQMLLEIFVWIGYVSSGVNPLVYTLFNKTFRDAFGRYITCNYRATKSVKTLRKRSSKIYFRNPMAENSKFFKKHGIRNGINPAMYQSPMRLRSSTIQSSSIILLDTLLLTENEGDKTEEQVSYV

For `COc1ccc2[nH]cc(CCN(C)Cc3c(OC)cccc3OC)c2c1` [A, reference compound], the Ki in data set [1] (setting [14]) is 1600 nM; in data set [2], 402 nM. In [3], this compound came in with a half-inhibitory concentration (IC50) greater than 10000 nM.
Take `COc1cc(OC)c(CN(CCc2c[nH]c3ccc(OC)cc23)C(C)C)c(OC)c1` [B, reference compound]: the values for the Ki in data set [1] (setting [15]) and in data set [2] (setting [16]) were 4600 nM and 4930 nM, respectively. Also, the concentration for half-maximal inhibition (IC50) in [3] (setting [17]) is greater than 10000 nM.
As for `COc1ccc2[nH]cc(CCN(C)Cc3cc(OC)c(OC)c(OC)c3)c2c1` [C, reference compound], the Ki in data set [1] (setting [14]) is 340 nM; in [2], 76 nM. In data set [3], this compound came in with a 50% inhibitory concentration (IC50) of 2050 nM.
Take `CCCCn1cc(CCN(C)C)c2c(O)cccc21` [Compound 6]: the EC50 in [4] is roughly 600 nM.
`COc1ccc2[nH]cc(CCN(C)Cc3ccccc3OC)c2c1` [Example 1] showed an EC50 in data set [5] (HEK-293) of 520 nM. Also, in [5] (at the highest concentrations, read-out: 5HT2A maximum efficacy), the Emax came out at 80%. For the same compound, the half-maximal inhibitory concentration (IC50) in [6] was 1700 nM; in data set [10], 1800 nM; in data set [3] (CHO cells, background serotonin 10 uM, read-out: 5HT2B functional antagonist IC50) it was less than 10000 nM. Besides, the “Selectivity for 5HT2A over 5HT2C (Ki)” value in [7] is reported as “about 6 fold”. The half-life in data set [8] was 1.1 h. The Ki in data set [9] was found to be 540 nM; in [2] (setting [18]) it was 180 nM; in data set [11], 680 nM. For the same compound, the “Selectivity for 5HT2A over 5HT1A (Ki)” value in [9] (binding Ki ratio) was “about 5 fold”. In addition, the “5HT2B functional mode (antagonist)” value in [3] (relative to serotonin) was “full antagonist”. Further, the “5HT2B functional agonist EC50 (IP1)” value in data set [12] (CHO cells, HTRF, serotonin 1 uM control) is “could not be determined for lack of activity”. In addition, the Head twitch activity result in [13] is “no significant head twitch activity”.
`COc1cccc(CN(C)CCc2c[nH]c3ccccc23)c1` [Example 10]: the Ki in data set [9] is 510 nM; in data set [1] (125I-DOI 0.1 nM, HEK-293, Cheng Prusoff, read-out: 5HT2A binding constant Ki), 14 nM; in data set [2] (setting [18]), 380 nM; in data set [11], 42 nM. Also, the 50% inhibitory concentration (IC50) in data set [12] (Example 10, read-out: 5HT2B functional agonist mode IC50) stood at 1050 nM. Moreover, the “5HT2B functional agonist mode efficacy” value in data set [12] (up to 30 uM) is less than 20%.
Regarding `CCN(CCc1c[nH]c2ccc(OC)cc12)Cc1ccccc1OC` [Example 11, N-ethyl-2-(5-methoxy-1H-indol-3-yl)-N-(2-methoxybenzyl)ethan-1-amine], the Ki in data set [1] (setting [14]) came out at 170 nM; in [2], 173 nM. The compound further gave an EC50 in data set [12] greater than 10000 nM.
As for `COc1ccc2[nH]cc(CCN(Cc3ccccc3OC)C(C)C)c2c1` [Example 12, N-(2-(5-methoxy-1H-indol-3-yl)ethyl)-N-(2-methoxybenzyl)propan-2-amine], the Ki in [1] (setting [15]) came to 277 nM; in [2] (setting [16]), 341 nM. Further, the EC50 in data set [12] (setting [19]) was greater than 10000 nM.
As to `C=CCN(CCc1c[nH]c2ccc(OC)cc12)Cc1ccccc1OC` [Example 13, N-(2-(5-methoxy-1H-indol-3-yl)ethyl)-N-(2-methoxybenzyl)prop-2-en-1-amine], the Ki is 76 nM in data set [1] (setting [15]) and 73 nM in data set [2] (setting [16]). Further, the 50% inhibitory concentration (IC50) in [3] (setting [17]) was greater than 10000 nM. In addition, in [12] (setting [19]), the EC50 was greater than 10000 nM.
For the compound `COc1ccc(CN(C)CCc2c[nH]c3ccccc23)cc1` [Example 14, 2-(1H-indol-3-yl)-N-(4-methoxybenzyl)-N-methylethan-1-amine], the results for the Ki in data set [1] (setting [15]) and in data set [2] (setting [16]) were 280 nM and 69 nM, respectively. The IC50 in data set [3] (setting [17]) turned out to be 1670 nM.
For `COc1cccc(CN(C)CCc2c[nH]c3ccccc23)c1OC` [Example 15, N-(2,3-dimethoxybenzyl)-2-(H-indol-3-yl)-N-methylethan-1-amine], the Ki worked out at 274 nM in data set [1] (setting [14]) and 48 nM in data set [2]. Also, in data set [3], the IC50 was 1370 nM.
For `COc1cccc(CN(CCc2c[nH]c3ccccc23)C(C)C)c1OC` [Example 16, N-(2-(1H-indol-3-yl)ethyl)-N-(2,3-dimethoxybenzyl)prop-2-an-1-amine], the Ki in data set [1] (setting [15]) came out at 2630 nM; in [2] (setting [16]) it was 313 nM. The half-maximal inhibitory concentration (IC50) in data set [3] (setting [17]) is greater than 10000 nM. For the same compound, in data set [12] (setting [19]), the EC50 was greater than 10000 nM.
Consider `CN(CCc1c[nH]c2ccccc12)Cc1ccccc1` [Example 17, N-(2-(1H-indol-3-yl)ethyl)-N-(benzyl)methan-1-amine], for which the Ki in data set [1] (setting [15]) came out at 60 nM; in data set [2] (setting [16]), 45 nM. Further, the IC50 in [3] (setting [17]) was greater than 10000 nM.
For the compound `C/C=C\CN(CCc1c[nH]c2ccccc12)Cc1cccc(OC)c1` [Example 19, (Z)—N-(2-(1H-indol-3-yl)ethyl)-N-(3-methoxybenzyl)but-2-en-1-amine], the Ki in data set [1] (setting [15]) worked out at 31 nM; in [2] (setting [16]) it was 44 nM. In addition, the half-maximal inhibitory concentration (IC50) in [3] (setting [17]) is 3380 nM. In addition, the EC50 in data set [12] (setting [19]) was greater than 10000 nM.
On to `C=C(C)CN(CCc1c[nH]c2ccccc12)Cc1cccc(OC)c1` [Example 20, N-(2-(1H-indol-3-yl)ethyl)-N-(3-methoxybenzyl)2-methylprop-2-en-1-amine], for which the Ki in [1] (setting [15]) is 135 nM.
As to `CCc1cccc(CN(C)CCc2c[nH]c3ccccc23)c1` [Example 21, 2-(1H-indol-3-yl)-N-(3-ethylbenzyl)-N-methylethan-1-amine], the Ki in data set [1] (setting [15]) was determined as 5 nM. Besides, in data set [3] (setting [17]), the half-maximal inhibitory concentration (IC50) was 687 nM.
Turning to `CN(CCc1c[nH]c2ccccc12)Cc1cccc(O)c1` [Example 22, 3-(((2-(1H-indol-3-yl)ethyl)(methyl)amino)methyl)phenol], the Ki was determined as 35 nM in data set [1] (setting [14]) and 31 nM in data set [2]. Moreover, the 50% inhibitory concentration (IC50) in data set [3] was greater than 10000 nM.
Take `CN(CCc1c[nH]c2ccccc12)Cc1cccc(Br)c1` [Example 23, N-(3-bromobenzyl)-2-(1H-indol-3-yl)-N-methylethan-1-amine]: the results for the Ki in [1] (setting [15]) and in [2] (setting [16]) were 11 nM and 22 nM, respectively. For the same compound, the IC50 in data set [3] (setting [17]) came to 1620 nM.
As to `CN(CCc1c[nH]c2ccccc12)Cc1cccc(CO)c1` [Example 24, N-(2-(1H-indol-3-yl)ethyl)-N-(3-hydroxymethylbenzyl)methan-1-amine], the Ki in data set [1] (setting [15]) was determined as 59 nM; in data set [2] (setting [16]), 50 nM. Also, the IC50 in data set [3] (setting [17]) was 6990 nM.
With `C#Cc1cccc(CN(C)CCc2c[nH]c3ccccc23)c1` [Example 25, 2-(1H-indol-3-yl)-N-(3-ethynylbenzyl)-N-methylethan-1-amine], the Ki stood at 6 nM in [1] (setting [15]) and 13 nM in data set [2] (setting [16]). Besides, the 50% inhibitory concentration (IC50) in data set [3] (setting [17]) came out at 2560 nM. Besides, the EC50 in data set [12] (setting [19]) came to 163 nM.
With `CN(CCc1c[nH]c2ccccc12)Cc1cccc2c1OCO2` [Example 26], the Ki in [1] (setting [15]) was 73 nM; in [2] (setting [16]) it was 60 nM. In data set [3] (setting [17]), the half-maximal inhibitory concentration (IC50) is 1090 nM.
For `COc1cccc(CN(C)CCc2c[nH]c3ccc(OC)cc23)c1` [Example 27, 2-(5-methoxy-1H-indol-3-yl)-N-(3-methoxybenzyl)-N-methylethan-1-amine], the Ki in data set [1] (setting [14]) and in data set [2] was 16 nM each time.
As to `COc1ccccc1CN(C)CCc1c[nH]c2ccccc12` [Example 28, 2-(1H-indol-3-yl)-N-(2-methoxybenzyl)-N-methylethan-1-amine], the Ki in data set [1] (setting [14]) is 130 nM; in data set [2], 253 nM.
As to `C=CCN(CCc1c[nH]c2ccccc12)Cc1cccc(OC)c1` [Example 29, N-(2-(1H-indol-3-yl)ethyl)-N-(3-methoxybenzyl)prop-2-en-1-amine], the results for the Ki in data set [1] (setting [15]) and in data set [2] (setting [16]) were 28 nM and 21 nM, respectively.
